pIC50: −log10 of the molar value.
target: T1, SARS-CoV-2 PL^Pro (Severe acute respiratory syndrome coronavirus 2, UniProt P0DTD1); assay: biochemical; settings: not given
T1 construct: SARS-CoV-2 PL^Pro catalytic domain (746-1060); made in house

Row | SMILES | pIC50
1 | Cc1ccc(N2C3CCC2CN(C)C3)cc1C(=O)NC1(c2ccc3c4c(cccc24)C(=O)N3C)CC1 [Compound P8, 2-Methyl-N-(1-(1-methyl-2-oxo-1,2-dihydrobenzo[cd]indol-6-yl)cyclopropyl)-3-methyl-3,8-diazabicyclo[3.2.1]octan-8-yl benzamide] | 6.00 to 7.00
2 | Cc1ccc(N2CC3CC(C2)N3C)cc1C(=O)NC1(c2ccc3c4c(cccc24)C(=O)N3C(C)C)CC1 [Compound P21, N-(1-(1-isopropyl-2-oxo-1,2-dihydrobenzo[cd]indol-6-yl)cyclopropyl)-2-methyl-5-(6-methyl-3,6-diazabicyclo[3.1.1]heptan-3-yl)benzamide] | > 7.40
3 | Cc1ccc(N2CCNC3(CC3)C2)cc1C(=O)NC1(c2ccc3c4c(cccc24)C(=O)N3C)CC1 [Compound P12, 2-Methyl-N-(1-(1-methyl-2-oxo-1,2-dihydrobenzo[cd]indol-6-yl)cyclopropyl)-5-(4,7-diazaspiro[2,5]octan-7-yl) benzamide] | 7.00 to 7.40
4 | Cc1ccc(N2C3CCC2CNC3)cc1C(=O)NC1(c2ccc3c4c(cccc24)C(=O)N3C)CC1 [Compound P6, 5-(3,8-diazabicyclo[3.2.1]octan-8-yl)-2-methyl-N-(1-(1-methyl-2-oxo-1,2-dihydrobenzo[cd]indol-6-yl)cyclopropyl)ben zamide] | > 7.40

same assay, conditions: SARS-CoV-2 PLPro catalytic domain (746-1060), 10 minutes pre-incubation; read-out: PLpro IC50

Row | SMILES | pIC50
5 | Cc1ccc(N2CCC(N(C)C)CC2)cc1C(=O)NC1(c2ccc3c4c(cccc24)C(=O)N3C)CC1 [Compound P13, 5-(4-(Dimethylamino)piperidin-1-yl)-2-methyl-N-(1-(1-methyl-2-oxo-1,2-dihydrobenzo[cd]indol-6-yl)cyclopropyl)ben zamide] | 6.00 to 7.00
6 | Cc1ccc(N2CC3CCCN(C)C3C2)cc1C(=O)NC1(c2ccc3c4c(cccc24)C(=O)N3C)CC1 (centres unmarked) [Compound P39, 2-Methyl-N-(1-(1-methyl-2-oxo-1,2-dihydrobenzo[cd]indol-6-yl)cyclopropyl)-5-(1-methyloctahydro-6H-pyrrolo[3,4-b]pyridin-6-yl)benzamide] | > 7.40
7 | Cc1ccc(N2CC(N3CCC(F)C3)C2)cc1C(=O)NC1(c2ccc3c4c(cccc24)C(=O)N3C)CC1 (centres unmarked) [Compound P30, 5-(3-(3-fluoropyrrolidin-1-yl)azetidin-1-yl)-2-methyl-N-(1-(1-methyl-2-oxo-1,2-dihydrobenzo[cd]indol-6-yl)cyclopropyl)benzamide] | > 7.40
8 | Cc1ccc(N2CCN(CCO)CC2)cc1C(=O)NC1(c2ccc3c4c(cccc24)C(=O)N3C)CC1 [Compound P53, 5-(4-(2-Hydroxyethyl)piperazin-1-yl)-2-methyl-N-(1-(1-methyl-2-oxo-1,2-dihydrobenzo[cd]indol-6-yl)cyclopropyl)ben zamide] | 7.00 to 7.40
9 | Cc1ccc(-n2ccc(N(C)C)c2)cc1C(=O)NC1(c2ccc3c4c(cccc24)C(=O)N3C)CC1 [Compound P15, 5-(3-(dimethylamino)pyrrol-1-yl)-2-methyl-N-(1-(1-methyl-2-oxo-1,2-dihydrobenzo[cd]indol-6-yl)cyclopropyl)benzamide] | > 7.40
10 | Cc1ccc(N2CC(N3C=CC(F)(F)C3)C2)cc1C(=O)NC1(c2ccc3c4c(cccc24)C(=O)N3C)CC1 [Compound P18, 5-(3-(3,3-difluoropyrrol-1-yl)azetidin-1-yl)-2-methyl-N-(1-(1-methyl-2-oxo-1,2-dihydrobenzo[cd]indol-6-yl)cyclopropyl)benzamide] | 6.00 to 7.00
11 | Cc1ccc(N2CC(N3CCC(F)(F)CC3)C2)cc1C(=O)NC1(c2ccc3c4c(cccc24)C(=O)N3C)CC1 [Compound P31, 5-(3-(4,4-difluoropiperidin-1-yl)azetidin-1-yl)-2-methyl-N-(1-(1-methyl-2-oxo-1,2-dihydrobenzo[cd]indol-6-yl)cyclopropyl)benzamide] | 7.00 to 7.40
12 | Cc1ccc(N2CCN(C)CC2)cc1C(=O)NC1(c2ccc3c4c(cccc24)C(=O)N3)CC1 [Compound P2, 2-Methyl-5-(4-methylpiperazin-1-yl)-N-(1-(2-oxo-1,2-dihydrobenzo[cd]indol-6-yl)cyclopropyl)benzamide] | 7.00 to 7.40
13 | Cc1ccc(N2CCC(N3CCCC3)C(F)(F)C2)cc1C(=O)NC1(c2ccc3c4c(cccc24)C(=O)N3C)CC1 (centres unmarked) [Compound P48, 5-(3,3-difluoro-4-(pyrrolidin-1-yl)piperidin-1-yl)-2-methyl-N-(1-(1-methyl-2-oxo-1,2-dihydrobenzo[cd]indol-6-yl)cyclopropyl)benzamide] | 6.00 to 7.00
14 | Cc1ccc(C2CCN(C)CC2)cc1C(=O)NC1(c2ccc3c4c(cccc24)C(=O)N3C)CC1 [Compound P22, 2-methyl-N-(1-(1-methyl-2-oxo-1,2-dihydrobenzo[cd]indol-6-yl)cyclopropyl)-5-(1-methylpiperidin-4-yl)benzamide] | 7.00 to 7.40
15 | Cc1ccc(N2CC(N3CCN(C)C(=O)C3)C2)cc1C(=O)NC1(c2ccc3c4c(cccc24)C(=O)N3C)CC1 [Compound P44, 2-Methyl-N-(1-(1-methyl-2-oxo-1,2-dihydrobenzo[cd]indol-6-yl)cyclopropyl)-5-(3-(4-methyl-3-oxopiperazin-1-yl)azetidin-1-yl)benzamide] | 6.00 to 7.00
16 | Cc1ccc(N2CCN3CCC[C@@H]3C2)cc1C(=O)NC1(c2ccc3c4c(cccc24)C(=O)N3C)CC1 [Compound P25, (R)-5-(hexahydropyrrolo[1,2-a]pyrazin-2(1H)-yl)-2-methyl-N-(1-(1-methyl-2-oxo-1,2-dihydrobenzo[cd]indol-6-yl)cyclopropyl)benzamide] | > 7.40
17 | Cc1ccc(N2CCN(CC(C)O)CC2)cc1C(=O)NC1(c2ccc3c4c(cccc24)C(=O)N3C)CC1 (centres unmarked) [Compound P41, 5-(4-(2-hydroxypropyl)piperazin-1-yl)-2-methyl-N-(1-(1-methyl-2-oxo-1,2-dihydrobenzo[cd]indol-6-yl)cyclopropyl)be nzamide] | > 7.40
18 | Cc1ccc(N2CC(N3CCCCC3)C2)cc1C(=O)NC1(c2ccc3c4c(cccc24)C(=O)N3C)CC1 [Compound P24, 2-Methyl-N-(1-(1-methyl-2-oxo-1,2-dihydrobenzo[cd]indol-6-yl)cyclopropyl)-5-(3-(piperidin-1-yl)azetidin-1-yl)benzamide] | > 7.40
19 | Cc1ccc(N2CCC(CN3CCOCC3)CC2)cc1C(=O)NC1(c2ccc3c4c(cccc24)C(=O)N3C)CC1 [Compound P38, 2-Methyl-N-(1-(1-methyl-2-oxo-1,2-dihydrobenzo[cd]indol-6-yl)cyclopropyl)-5-(4-(morpholinomethyl)piperidin-1-yl)b enzamide] | 6.00 to 7.00
20 | Cc1ccc(N2CCC(N3CCCCC3)C2)cc1C(=O)NC1(c2ccc3c4c(cccc24)C(=O)N3C)CC1 (centres unmarked) [Compound P50, 2-Methyl-N-(1-(1-methyl-2-oxo-1,2-dihydrobenzo[cd]indol-6-yl)cyclopropyl)-5-(3-(piperidin-1-yl)pyrrolidin-1-yl)benz amide] | > 7.40
21 | CCN1C(=O)c2cccc3c(C4(NC(=O)c5cc(N6CC(N7CCC(C)(O)CC7)C6)ccc5C)CC4)ccc1c23 [Compound P28, N-(1-(1-Ethyl-2-oxo-1,2-dihydrobenzo[cd]indol-6-yl)cyclopropyl)-5-(3-(4-hydroxy-4-methylpiperidin-1-yl)azetidin-1-yl)-2-methyl-benzamide] | > 7.40
22 | Cc1ccc(N2CC(N3CCN(C)CC3)C2)cc1C(=O)NC1(c2ccc3c4c(cccc24)C(=O)N3C)CC1 [Compound P23, 2-Methyl-N-(1-(1-methyl-2-oxo-1,2-dihydrobenzo[cd]indol-6-yl)cyclopropyl)-5-(3-(4-methylpiperazin-1-yl)azetidin-1-yl)benzamide] | 6.00 to 7.00
23 | CCN1C(=O)c2cccc3c(C4(NC(=O)c5cc(N6CCN(C)CC6)ccc5C)CC4)ccc1c23 [Compound P27, N-(1-(1-ethyl-2-oxo-1,2-dihydrobenzo[cd]indol-6-yl)cyclopropyl)-2-methyl-5-(4-methylpiperazin-1-yl)benzamide] | > 7.40
24 | Cc1ccc(N2CC(N3CCCC3)C2)cc1C(=O)NC1(c2ccc3c4c(cccc24)C(=O)N3C)CC1 [Compound P45, 2-methyl-N-(1-(1-methyl-2-oxo-1,2-dihydrobenzo[cd]indol-6-yl)cyclopropyl)-5-(3-(pyrrolidin-1-yl)azetidin-1-yl)benzamide] | > 7.40
25 | Cc1ccc(N2CC(N3CCC(O)C3)C2)cc1C(=O)NC1(c2ccc3c4c(cccc24)C(=O)N3C)CC1 (centres unmarked) [Compound P43, 5-(3-(3-hydroxypyrrolidin-1-yl)azetidin-1-yl)-2-methyl-N-(1-(1-methyl-2-oxo-1,2-dihydrobenzo[cd]indol-6-yl)cyclopropyl)benzamide] | > 7.40

same assay, conditions: read-out: PLpro IC50

Row | SMILES | pIC50
26 | Cc1ccc(N2CCN(CCCS(C)(=O)=O)CC2)cc1C(=O)NC1(c2ccc3c4c(cccc24)C(=O)N3C)CC1 [Compound P51] | 7.00 to 7.40
27 | Cc1ccc(N2CC(N3CC(F)C3)C2)cc1C(=O)NC1(c2ccc3c4c(cccc24)C(=O)N3C)CC1 [Compound P54, 5-(3-Fluoro-[1,3'-diazetidinyl]-1'-yl)-2-methyl-N-(1-(1-methyl-2-oxo-1,2-dihydrobenzo[cd]indol-6-yl)cyclopropyl)ben zamide] | 7.00 to 7.40
28 | Cc1ccc(N2CC3(CCN(C)C3)C2)cc1C(=O)NC1(c2ccc3c4c(cccc24)C(=O)N3C)CC1 [Compound P19] | 6.00 to 7.00
29 | Cc1ccc(N2CC(N3CCS(=O)(=O)CC3)C2)cc1C(=O)NC1(c2ccc3c4c(cccc24)C(=O)N3C)CC1 [Compound P35, 5-(3-(1,1-dioxothiomorpholin)azetidin-1-yl)-2-methyl-N-(1-(1-methyl-2-oxo-1,2-dihydrobenzo[cd]indol-6-yl)cyclopropyl)benzamide] | 6.00 to 7.00
30 | Cc1ccc(N2CC(N3CCOCC3)C2)cc1C(=O)NC1(c2ccc3c4c(cccc24)C(=O)N3C)CC1 [Compound P46, 2-methyl-N-(1-(1-methyl-2-oxo-1,2-dihydrobenzo[cd]indol-6-yl)cyclopropyl)-5-(3-morpholinazetidin-1-yl)benzamide] | 6.00 to 7.00
31 | Cc1ccc(N2CC(N3CCC3)C2)cc1C(=O)NC1(c2ccc3c4c(cccc24)C(=O)N3C)CC1 [Compound P42, 5-([1,3'-diazetidin]-1'-yl)-2-methyl-N-(1-(1-methyl-2-oxo-1,2-dihydrobenzo[cd]indol-6-yl)cyclopropyl)benzamide] | > 7.40
32 | Cc1ccc(N2CC[C@H](N(C)C(C)C)C2)cc1C(=O)NC1(c2ccc3c4c(cccc24)C(=O)N3C)CC1 [Compound P36] | > 7.40

Reference: EP4745124A1, “NAPHTHALIMIDE-BASED CORONAVIRUS PAPAIN-LIKE PROTEASE INHIBITOR” (Guangzhou National Laboratory, priority 2023, dated 2025)
